The target in one assay is T1, FLT3 ITD, D835V (Homo sapiens, UniProt P36888, D835V/ITD).
T1 sequence (P36888 564-993 D835V): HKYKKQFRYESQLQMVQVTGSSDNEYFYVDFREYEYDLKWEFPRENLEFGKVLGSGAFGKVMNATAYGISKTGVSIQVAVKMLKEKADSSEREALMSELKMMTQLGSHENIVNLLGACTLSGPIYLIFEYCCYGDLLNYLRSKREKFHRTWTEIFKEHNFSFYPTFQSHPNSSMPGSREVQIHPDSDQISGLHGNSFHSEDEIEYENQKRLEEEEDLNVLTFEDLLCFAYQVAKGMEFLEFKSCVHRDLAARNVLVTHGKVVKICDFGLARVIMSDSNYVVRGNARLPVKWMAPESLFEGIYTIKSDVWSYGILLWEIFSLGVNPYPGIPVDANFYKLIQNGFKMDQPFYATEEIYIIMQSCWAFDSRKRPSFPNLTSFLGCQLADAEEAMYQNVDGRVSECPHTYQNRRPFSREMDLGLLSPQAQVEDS
The assay is described as follows: DiscoverX KINOMEscan competition binding assay, FLT3 ITD, D835V. An excerpt:
Kinase binding data were obtained for various exemplary compounds prepared according to Examples 1-25 using the DiscoverX KINOMEscan® active site-directed competition binding site-directed assay protocol described below. […] As a result, the data report thermodynamic interaction affinities (Kd values), rather than IC50 values that are dependent on ATP concentrations. The assay uses a DNA-tagged version of the protein kinase, and an immobilized ligand bound to a solid support. Compounds that directly or indirectly prevent kinase binding to the immobilized ligand reduce the amount of kinase captured on the solid support, which is detected using an ultra-sensitive qPCR method. Affinity constants reported from the assay have been reported to be independent of the immobilized ligand used that is coupled to the solid support (See supplemental information in Fabian, M. A. et. al., (2005) Nat. Biotechnol. 23, 329-336; Wodicka, L. M. et. al., (2010) Chem. Biol. 17, 1241-1249.)
Kinase-tagged T7 phage strains were prepared in an E. coli host derived from the BL21 strain. E. coli were grown to log-phase and infected with T7 phage and incubated with shaking at 32° C. until lysis. The lysates were centrifuged and filtered to remove cell debris. The remaining kinases were produced in HEK-293 cells and subsequently tagged with DNA for qPCR detection. […] The liganded beads were blocked with excess biotin and washed with blocking buffer (SeaBlock (Pierce), 1% BSA, 0.05% Tween 20, 1 mM DTT) to remove unbound ligand and to reduce non-specific binding. […] Test compounds were prepared as 111× stocks in 100% DMSO. Kds were determined using an 11-point 3-fold compound dilution series with three DMSO control points. […] The compounds were then diluted directly into the assays such that the final concentration of DMSO was 0.9%. All reactions were performed in polypropylene 384-well plates. Each was a final volume of 0.02 mL. […] The kinase concentration in the eluates was measured by qPCR.
Binding constants (Kds) were calculated with a standard dose-response curve using the Hill equation. […]

A further assay deals with MOLM14 D835Y cells. Put plainly: MOLM14 D835Y cell viability assay (Cell Titer Glo). Type of assay: cell-based. The procedure, abridged: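 MOLM14 cells carrying FLT3 D835Y or F691L were seeded at 1000 cells/well in RPMI-1640 with 20% FBS and dosed at 22 concentrations, 1:2 dilutions from 10 μM. Viability after 48 h by Cell Titer Glo luminescence; 2.3 μM bortezomib as cytotoxic control.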

The test system of the next assay is MOLM14 F691L cells. Put plainly: MOLM14 F691L cell viability assay (Cell Titer Glo). Type of assay: cell-based. The protocol: Both cell lines have activated FLT3 receptors, each of which carry additional resistance mutations in the kinase domain (D835Y and F691L, respectively).
MOLM14 D835Y and MOLM14 F691L cells were grown in RPMI-1640 media supplemented with 20% fetal bovine serum (FBS). For viability/cytotoxicity assessments, cells were seeded into 1536-well white polystyrene tissue culture-treated Greiner plates using a Multidrop Combi dispenser (ThermoFisher), in final volume 5 μL of growth media per well, at a density of 1000 cells per well. After cell addition, 23 nL of test compound were transferred into individual wells (22 doses tested for each test compound, with a 1:2 dilution series starting at 10 μM) via a 1536 pin-tool. Bortezomib (final concentration 2.3 μM) was used as a positive control for cell cytotoxicity. Plates were incubated for 48 hours at standard incubator conditions covered by a stainless steel gasketed lid to prevent evaporation. 48 hours post compound addition, 3 μL of Cell Titer Glo (Promega) were added to each well and plates were incubated at room temperature for 15 minutes with the stainless-steel lid in place. Luminescence readings were taken using a Viewlux imager (PerkinElmer) with a 2 second exposure time per plate.

In the next assay the test system is THP-1-Blue NF-κB cells. Put plainly: NF-kB SEAP reporter assay in THP-1-Blue NF-κB cells. Type of assay: cell-based. The conditions noted are these: 24 hours. The protocol: THP-1-Blue NF-κB cells (InvivoGen) carrying a stable integrated NF-κB-inducible secreted embryonic alkaline phosphatase (SEAP) reporter construct were plated at a concentration of 1×10^5 cells per well. The cells were stimulated with Pam3CSK4 (1 ng/mL) or hIL1B (1 ng/mL). After 10-20 minutes, the cells were then treated with vehicle (DMSO) or serial dilutions of the test compounds (10 doses tested for each test compound, with a 1:10 dilution series starting at 1 μM or 3 μM) with a final volume of 200 μL for 24 hours at 37° C. After 24 hours, the cells were centrifuged and 20 μL supernatant was incubated with 180 μL QUANTI-Blue reagent at 37° C. for 30-60 minutes. The levels of NF-κB-induced gene expression were measured in a microplate reader at 620 nm.

Where [1] appears, read: stimulated with Pam3CSK4 (1 ng/mL), read-out: NF-κB Pam3SCK4 IC50.
[2] abbreviates: stimulated with hIL1B (1 ng/mL), read-out: NF-κB IL1B IC50.

Where two headings read alike, the source gives them in different places.

Consider `COc1cc2ncc(-c3cccc(N[C@@H]4CCNC4)n3)n2nc1C1CC1` [Compound 97, (R)-6-(6-cyclopropyl-7-methoxyimidazo[1,2-b]pyridazin-3-yl)-N-(pyrrolidin-3-yl)pyridin-2-amine], for which the Kd at FLT3 ITD, D835V (read-out: FLT3 ITD, D835V Kd) was 0.034 nM. In the assay with MOLM14 D835Y cells (Homo sapiens, MOLM-14, 48 h), half-maximal inhibition (IC50) required 34 nM.
As for `COc1cc2ncc(-c3cccc(N[C@H]4CNC[C@@H]4F)n3)n2nc1C(C)(O)C(F)(F)F` (single isomer, unassigned; fast-eluting) [Compound 133], the IC50 with MOLM14 D835Y cells (48 hours) amounted to 86 nM; in the assay on MOLM14 F691L cells (48 hours), 969 nM.
In the assay with MOLM14 D835Y cells (Homo sapiens, MOLM-14, 48 h), `c1cc(N[C@@H]2CCCNC2)nc(-c2cnc3ccc(-c4cnn5ccccc45)nn23)c1` [Compound 19, (R)-N-(piperidin-3-yl)-6-(6-(pyrazolo[1,5-a]pyridin-3-yl)imidazo[1,2-b]pyridazin-3-yl)pyridin-2-amine] showed an IC50 of 402 nM.
`COc1cc2ncc(-c3cccc(N[C@H]4CNC[C@@H]4C(F)(F)F)n3)n2nc1C1CC1` [Compound 99, 6-(6-cyclopropyl-7-methoxyimidazo[1,2-b]pyridazin-3-yl)-N-((3R,4S)-4-(trifluoromethyl)pyrrolidin-3-yl)pyridin-2-amine]: the IC50 in the assay with THP-1-Blue NF-κB cells (setting [1]) was found to be 121 nM; with THP-1-Blue NF-κB cells (setting [2]), 340 nM; in the assay on MOLM14 D835Y cells (Homo sapiens, MOLM-14, 48 h) it was 17 nM; in the assay with MOLM14 F691L cells (Homo sapiens, MOLM-14, 48 h), 269 nM.
For `COc1cc2ncc(-c3nc(N[C@H]4CNCC[C@@H]4F)c(F)cc3F)n2nc1C1CC1` [Compound 108, 6-(6-cyclopropyl-7-methoxyimidazo[1,2-b]pyridazin-3-yl)-3,5-difluoro-N-((3S,4S)-4-fluoropiperidin-3-yl)pyridin-2-amine] the same measures were 30 nM, 13 nM, 3 nM and 29 nM.
Consider `COc1cc2ncc(-c3nc(N[C@@H]4CCCNC4)c(F)cc3F)n2nc1C1CC1` [Compound 106, (R)-6-(6-cyclopropyl-7-methoxyimidazo[1,2-b]pyridazin-3-yl)-3,5-difluoro-N-(piperidin-3-yl)pyridin-2-amine], for which the IC50 with THP-1-Blue NF-κB cells (setting [1]) was 63 nM; in the assay on THP-1-Blue NF-κB cells (setting [2]) it was 59 nM; in the assay with MOLM14 D835Y cells (Homo sapiens, MOLM-14, 48 h) it was 3 nM; with MOLM14 F691L cells (Homo sapiens, MOLM-14, 48 h), 29 nM.
Taken in the same sequence, the figures for `COc1cc2ncc(-c3nc(N[C@H]4CNCC[C@@H]4F)c(F)cc3F)n2nc1C(C)(C)O` [Compound 128, 2-(3-(3,5-difluoro-6-(((3S,4S)-4-fluoropiperidin-3-yl)amino)pyridin-2-yl)-7-methoxyimidazo[1,2-b]pyridazin-6-yl)propan-2-ol] were 108 nM, 196 nM, 34 nM and 386 nM.
Regarding `COc1cc2ncc(-c3nc(N[C@@H]4CCCNC4)c(F)cc3F)n2nc1C(C)(C)O` [Compound 127, (R)-2-(3-(3,5-difluoro-6-(piperidin-3-ylamino)pyridin-2-yl)-7-methoxyimidazo[1,2-b]pyridazin-6-yl)propan-2-ol], the IC50 was 254 nM in the assay with THP-1-Blue NF-κB cells (setting [1]); 359 nM in the assay with THP-1-Blue NF-κB cells (setting [2]); 1220 nM in the assay with MOLM14 D835Y cells (Homo sapiens, MOLM-14, 48 h); 6120 nM with MOLM14 F691L cells (Homo sapiens, MOLM-14, 48 h).
In the case of `COc1cc2ncc(-c3cccc(N[C@H]4CNCC[C@@H]4F)n3)n2nc1C1CC1` [Compound 102, 6-(6-cyclopropyl-7-methoxyimidazo[1,2-b]pyridazin-3-yl)-N-((3S,4S)-4-fluoropiperidin-3-yl)pyridin-2-amine], the Kd at FLT3 ITD, D835V (read-out: FLT3 ITD, D835V Kd) came out at 0.045 nM. For the same compound, the IC50 with THP-1-Blue NF-κB cells (setting [1]) is 135 nM; with THP-1-Blue NF-κB cells (setting [2]) it was 254 nM; with MOLM14 D835Y cells (Homo sapiens, MOLM-14, 48 h) it was 34 nM; in the assay with MOLM14 F691L cells (Homo sapiens, MOLM-14, 48 h), 388 nM.
Take `COc1cc2ncc(-c3nc(N[C@H]4CNC[C@@H]4F)c(F)cc3F)n2nc1C1CC1` [Compound 107, 6-(6-cyclopropyl-7-methoxyimidazo[1,2-b]pyridazin-3-yl)-3,5-difluoro-N-((3S,4S)-4-fluoropyrrolidin-3-yl)pyridin-2-amine]: the concentration for half-maximal inhibition (IC50) with THP-1-Blue NF-κB cells (setting [1]) is 18 nM; in the assay on THP-1-Blue NF-κB cells (setting [2]), 15 nM; in the assay on MOLM14 D835Y cells (Homo sapiens, MOLM-14, 48 h) it was 11 nM; in the assay with MOLM14 F691L cells (Homo sapiens, MOLM-14, 48 h), 137 nM.
On to `F[C@H]1CNC[C@@H]1Nc1cccc(-c2cnc3ccc(-c4cnn5ccccc45)nn23)n1` [Compound 9, N-((3S,4S)-4-fluoropyrrolidin-3-yl)-6-(6-(pyrazolo[1,5-a]pyridin-3-yl)imidazo[1,2-b]pyridazin-3-yl)pyridin-2-amine], for which, in the assay on MOLM14 D835Y cells (Homo sapiens, MOLM-14, 48 h), half-maximal inhibition (IC50) required 101 nM.
`COc1cc2ncc(-c3nc(N[C@H]4CNC[C@@H]4F)c(F)cc3F)n2nc1C(C)(C)O` [Compound 126, 2-(3-(3,5-difluoro-6-(((3S,4S)-4-fluoropyrrolidin-3-yl)amino)pyridin-2-yl)-7-methoxyimidazo[1,2-b]pyridazin-6-yl)propan-2-ol]: the IC50 turned out to be 92 nM in the assay on THP-1-Blue NF-κB cells (setting [1]); 121 nM in the assay with THP-1-Blue NF-κB cells (setting [2]); 109 nM in the assay on MOLM14 D835Y cells (Homo sapiens, MOLM-14, 48 h); 1540 nM in the assay on MOLM14 F691L cells (Homo sapiens, MOLM-14, 48 h).
In the case of `COc1cc2ncc(-c3cccc(N[C@H]4CNC[C@@H]4F)n3)n2nc1C1CC1` [Compound 96, 6-(6-cyclopropyl-7-methoxyimidazo[1,2-b]pyridazin-3-yl)-N-((3S,4S)-4-fluoropyrrolidin-3-yl)pyridin-2-amine], the Kd at FLT3 ITD, D835V is 0.07 nM. In addition, the IC50 was 93 nM in the assay on THP-1-Blue NF-κB cells (setting [1]); 121 nM with THP-1-Blue NF-κB cells (setting [2]); 55 nM in the assay on MOLM14 D835Y cells (Homo sapiens, MOLM-14, 48 h); 673 nM with MOLM14 F691L cells (Homo sapiens, MOLM-14, 48 h).

The record behind these values is patent US12534469B2 (CHILDREN'S HOSPITAL MEDICAL CENTER, priority 2020, dated 2026).
